Laboratory results from patent US8901141B2, “Tricyclic compounds having corticotropin-releasing factor antagonistic activity and pharmaceutical compositions containing them” (Takeda Pharmaceutical Company, Limited, priority 2008, dated 2014).
pIC50: −log10 of the molar value.

Molecular target: T1, human CRF1 receptor (Homo sapiens, UniProt P34998)
T1 construct: expressed in transfected cells; host or cells: CHO cells (membrane fraction)
T1 sequence (P34998 24-415): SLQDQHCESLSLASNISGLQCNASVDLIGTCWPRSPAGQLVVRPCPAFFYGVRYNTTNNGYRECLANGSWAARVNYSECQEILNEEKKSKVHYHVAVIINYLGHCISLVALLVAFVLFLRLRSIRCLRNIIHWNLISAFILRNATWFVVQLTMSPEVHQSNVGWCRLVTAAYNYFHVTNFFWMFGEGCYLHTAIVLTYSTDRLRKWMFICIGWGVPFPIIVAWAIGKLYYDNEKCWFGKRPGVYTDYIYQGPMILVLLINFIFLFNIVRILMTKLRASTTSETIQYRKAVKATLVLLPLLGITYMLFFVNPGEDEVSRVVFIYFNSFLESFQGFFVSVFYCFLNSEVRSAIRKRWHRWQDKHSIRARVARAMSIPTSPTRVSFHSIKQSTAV
Assay: Measurement of CRF binding inhibitory rate (125I-CRF receptor binding, CHO cellular membrane fraction)
Conditions: human CRF1 receptor expressing CHO cellular membrane fraction, 50 pM 125I-CRF; for Binding inhibitory rates (% inhibition) / inhibition at 1 µM: at the presence of 1 μM of a test compound; for inhibition at 1 µM: 1.5 h, read-out: Binding inhibitory rates (% inhibition)
Procedure: A receptor binding experiment was carried out using a human CRF1 receptor expressing CHO cellular membrane fraction and ovine CRF, [^125I]-tyr^0(^125I-CRF). 1000 nM of a test compound was incubated with 1 μg of human CRF receptor expressing CHO cellular membrane fraction and 50 pM of ^125I-CRF in a binding assay buffer (50 mM Tris-HCl, 5 mM EDTA, 10 mM MgCl2, 0.05% CHAPS, 0.1% BSA, 0.5 mM PMSF, 0.1 μg/mL pepstatin, 20 μg/mL leupeptin, pH 7.5). In addition, for measuring nonspecific binding (NSB), 0.1 μM unlabelled human Urocortin was incubated with 5 μg of human CRF receptor expressing CHO cellular membrane fraction and 50 pM of ^125I-CRF in a binding assay buffer. After a binding reaction was carried out at room temperature for 1.5 hr, the membrane was entrapped on a glass filter (UniFilter plate GF-C/Perkin Elmer) by suction filtration using a cell harvester (Perkin Elmer), and washed with ice-cooled 50 mM Tris-HCl (pH 7.5). After drying the glass filter, a liquid scintillation cocktail (Microscinti 0, Perkin Elmer) was added, and the radioactivity of ^125I-CRF remaining on a glass filter was measured using Topcount (Perkin Elmer).
(TB-SB)/(TB-NSB)×100 (SB: radioactivity when a compound is added, TB: maximum binding radioactivity, NSB: nonspecific binding radioactivity) were calculated to obtain binding inhibitory rates under the range of the presence from 0.05 nM to 10 μM of each compound. The IC50 values were calculated by using GraphPad Prism software.

| SMILES | inhibition at 1 µM [%] | also measured |
| --- | --- | --- |
| CCC(O)c1ccc(Cl)c2nc3n(c12)CCCN3c1ccc(Cl)cc1Cl (single isomer, unassigned; (+)) [Example 439, (+)-1-[9-Chloro-1-(2,4-dichlorophenyl)-1,2,3,4-tetrahydropyrimido[1,2-a]benzimidazol-6-yl]propan-1-ol] | – | Binding inhibitory rates (% inhibition): 84% |
| COc1ccc(C(O)(C2CC2)C2CC2)c2c1nc1n2CCCN1c1ccc(Cl)cc1Cl [Example 369, Dicyclopropyl[1-(2,4-dichlorophenyl)-9-methoxy-1,2,3,4-tetrahydropyrimido[1,2-a]benzimidazol-6-yl]methanol] | 96 | – |
| CCC(CCO)c1ccc(Cl)c2nc3n(c12)CCCN3c1ccc(Cl)cc1Cl (stereo not drawn) [Example 450, 3-[9-Chloro-1-(2,4-dichlorophenyl)-1,2,3,4-tetrahydropyrimido[1,2-a]benzimidazol-6-yl]pentan-1-ol] | 98 | – |
| CCC(OC(C)=O)c1ccc(Cl)c2nc3n(c12)CCCN3c1ccc(Cl)cc1Cl (single isomer, unassigned; (+)) [Example 240, (+)-1-[9-Chloro-1-(2,4-dichlorophenyl)-1,2,3,4-tetrahydropyrimido[1,2-a]benzimidazol-6-yl]propyl acetate] | – | Binding inhibitory rates (% inhibition): 97% |
| CCC(OC(C)=O)c1ccc(Cl)c2nc3n(c12)CCCN3c1ccc(Cl)cc1Cl (single isomer, unassigned; (-)) [Example 239, (−)-1-[9-Chloro-1-(2,4-dichlorophenyl)-1,2,3,4-tetrahydropyrimido[1,2-a]benzimidazol-6-yl]propyl acetate] | 90 | – |
| Cc1cc(Cl)cc(Cl)c1N1CCn2c1nc1c(Cl)ccc(C(O)(C3CC3)C3CC3)c12 [Example 426, [8-Chloro-1-(2,4-dichloro-6-methylphenyl)-2,3-dihydro-1H-imidazo[1,2-a]benzimidazol-5-yl](dicyclopropyl)methanol] | 98 | – |
| COc1ccc(N2CCCn3c2nc2c(Cl)ccc(C(O)(C4CC4)C4CC4)c23)c(C)n1 [Example 276, [9-Chloro-1-(6-methoxy-2-methylpyridin-3-yl)-1,2,3,4-tetrahydropyrimido[1,2-a]benzimidazol-6-yl](dicyclopropyl)methanol] | 94 | – |
| CCC(O)c1ccc(Cl)c2nc3n(c12)CCCN3c1ccc(Cl)cc1Cl (stereo not drawn) [Example 112, 1-[9-Chloro-1-(2,4-dichlorophenyl)-1,2,3,4-tetrahydropyrimido[1,2-a]benzimidazol-6-yl]propan-1-ol] | 95 | – |
| CCC(OC(C)=O)c1ccc(Cl)c2nc3n(c12)CCCN3c1ccc(OC)nc1C (single isomer, unassigned; (-)) [Example 266, (−)-1-[9-Chloro-1-(6-methoxy-2-methylpyridin-3-yl)-1,2,3,4-tetrahydropyrimido[1,2-a]benzimidazol-6-yl]propyl acetate] | 82 | – |
| CCC(OC(C)=O)c1ccc(Cl)c2nc3n(c12)CCCN3c1ccc(Cl)cc1Cl (racemic) [Example 238, 1-[9-Chloro-1-(2,4-dichlorophenyl)-1,2,3,4-tetrahydropyrimido[1,2-a]benzimidazol-6-yl]propyl acetate] | 98 | – |
| CCC(OC(C)=O)c1ccc(Cl)c2nc3n(c12)CCCN3c1ccc(OC)nc1C (single isomer, unassigned; (+)) [Example 267, (+)-1-[9-Chloro-1-(6-methoxy-2-methylpyridin-3-yl)-1,2,3,4-tetrahydropyrimido[1,2-a]benzimidazol-6-yl]propyl acetate] | – | Binding inhibitory rates (% inhibition): 96% |
| CCN(CC)c1ccc(F)c2nc3n(c12)CCCN3c1ccc(Cl)cc1Cl [Example 365, 1-(2,4-Dichlorophenyl)-N,N-diethyl-9-fluoro-1,2,3,4-tetrahydropyrimido[1,2-a]benzimidazol-6-amine] | 95 | – |
| CCC(OC(C)=O)c1ccc(Cl)c2nc3n(c12)CCCN3c1ccc(OC)nc1C (racemic) [Example 265, 1-[9-Chloro-1-(6-methoxy-2-methylpyridin-3-yl)-1,2,3,4-tetrahydropyrimido[1,2-a]benzimidazol-6-yl]propyl acetate] | 89 | – |
| CCC(CC)c1ccc(Cl)c2nc3n(c12)CCCCN3c1cnc(N(C)C)cc1C [Example 25, 5-[10-Chloro-7-(1-ethylpropyl)-2,3,4,5-tetrahydro-1H-[1,3]diazepino[1,2-a]benzimidazol-1-yl]-N,N,4-trimethylpyridin-2-amine] | 91 | – |
| COc1ccc(N2CCCn3c2nc2c(Cl)ccc(C(OCC(F)(F)F)C4CC4)c23)c(Cl)c1 (stereo not drawn) [Example 468, 9-Chloro-1-(2-chloro-4-methoxyphenyl)-6-[cyclopropyl(2,2,2-trifluoroethoxy)methyl]-1,2,3,4-tetrahydropyrimido[1,2-a]benzimidazole] | – | pIC50 (0.05 nM to 10 μM of compound, read-out: IC50 values (CRF binding inhibition)): > 6.00 |
